The assay is filed under the species Homo sapiens. Briefly: Potency based on concentration of sweetener which matches the sweetness recognition threshold of sucrose (~2%). The format is functional, organism-based.
Consider `CC12CCC(C1)C(C)(C)C2OC(=O)C(NC(=O)C(N)CC(=O)O)c1ccco1` (configuration not stated), for which the Log potency was 4.22.

Turning to `C[C@@H](N/C(=N\CC(=O)O)Nc1cc(Cl)cc(Cl)c1)c1ccccc1`, the Log potency was determined as 5.08.

`N#CN/C(=N\CCC(=O)O)Nc1ccc(C#N)cc1`: the Log potency came to 2.95.

Compound `O=C(O)C/N=C(\NCc1ccccc1)Nc1cc(Cl)cc(Cl)c1` displayed a Log potency of 4.9.

The compound `COC(=O)C(Cc1ccccc1)NC(=O)C(CC(=O)O)/N=C(\S)Nc1ccc(C#N)cc1` (configuration not stated) came in with a Log potency of 4.7.

Compound `CC12CCC(C1)C(C)(C)C2OC(=O)C(NC(=O)C(N)CC(=O)O)c1cccs1` (configuration not stated) had a Log potency of 3.38.

`N#Cc1ccc(N/C(S)=N/CCC(=O)O)cc1` displayed a Log potency of 3.32.

`CC(NC(=O)C(N)CC(=O)O)C(=O)NC1C(C)(C)CCC1(C)C` (configuration not stated) gave a Log potency of 2.9.

`CC(NC(=O)C(N)CC(=O)O)C(=O)NC1CCCC1` (configuration not stated) returned a Log potency of 1.7.

As for `N#Cc1ccc(NC(=O)NCCC(=O)O)cc1`, the Log potency amounted to 2.65.

For the compound `N#Cc1ccc(N/C(=N/CC(=O)O)NC2CCCCCCC2)cc1`, the Log potency came to 5.23.

Consider `COC(=O)C(Cc1ccccc1)NC(=O)C(CC(=O)O)NC(=O)Nc1ccc(C#N)cc1` (configuration not stated), for which the Log potency was 4.

For `N#Cc1ccc(NC(=O)NC(CC(=O)O)c2ccccc2)cc1` (configuration not stated), the Log potency came to 4.

In the case of `N#CN/C(=N\CC(=O)O)Nc1ccc(C#N)cc1`, the Log potency turned out to be 3.85.

`N#Cc1ccc(NC(=O)NC(CC(=O)O)c2cccnc2)cc1` (configuration not stated): the Log potency was determined as 4.3.

For the compound `N#Cc1ccc(N/C(=N/CC(=O)O)NS(=O)(=O)c2ccccc2)cc1`, the Log potency was found to be 4.48.

As for `CC(NC(=O)C(N)CC(=O)O)C(=O)NC1C(C)(C)SC1(C)C` (configuration not stated), the Log potency was 3.3.

`COC(=O)[C@H](Cc1ccccc1)NC(=O)[C@@H](N)CC(=O)O` had a Log potency of 2.26.

For `N#Cc1ccc(N/C(=N/CC(=O)O)NCc2ccccc2)cc1`, the Log potency was found to be 4.48.

Regarding `N#Cc1ccc(NC(=O)NC(CC(=O)O)c2ccncc2)cc1` (configuration not stated), the Log potency is 3.3.

`O=C(O)CCNC(=O)Nc1ccc([N+](=O)[O-])cc1` displayed a Log potency of 2.85.

As for `C[C@@H](N/C(=N\CC(=O)O)Nc1ccc(C#N)cc1)c1ccccc1`, the Log potency is 4.45.
